Columns and labels:
αvβ6 = αvβ6 (Homo sapiens, UniProt P06756+P18564); experiment: Solid Phase Integrin αvβ6 Assay; assay type: binding
In short: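 Plates coated with 1 μg/mL recombinant TGFb1-LAP; compounds and αvβ6 (0.2 μg/mL diluted stock) incubated 1 h at room temperature in 2% BSA/TBST with 1 mM MnCl2. Bound integrin detected with streptavidin-HRP and TMB; IC50 from four-parameter logistic fits.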

αvβ1 = αvβ1 (Homo sapiens, UniProt P05556+P06756); experiment: Solid Phase Integrin αvβ1 Assay; assay type: binding
In short: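 Wells coated with 1 µg/mL recombinant TGFb1-LAP and blocked with 2% BSA/TBST, 1 mM MnCl2; αvβ1 (added at 0.2 µg/mL) and compound incubated 90 min at room temperature. Bound integrin detected by streptavidin-HRP (20 min) and TMB after Mn-containing washes; IC50 by four-parameter logistic fit.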

αvβ1, sequence (P06756 31-992 limits assumed): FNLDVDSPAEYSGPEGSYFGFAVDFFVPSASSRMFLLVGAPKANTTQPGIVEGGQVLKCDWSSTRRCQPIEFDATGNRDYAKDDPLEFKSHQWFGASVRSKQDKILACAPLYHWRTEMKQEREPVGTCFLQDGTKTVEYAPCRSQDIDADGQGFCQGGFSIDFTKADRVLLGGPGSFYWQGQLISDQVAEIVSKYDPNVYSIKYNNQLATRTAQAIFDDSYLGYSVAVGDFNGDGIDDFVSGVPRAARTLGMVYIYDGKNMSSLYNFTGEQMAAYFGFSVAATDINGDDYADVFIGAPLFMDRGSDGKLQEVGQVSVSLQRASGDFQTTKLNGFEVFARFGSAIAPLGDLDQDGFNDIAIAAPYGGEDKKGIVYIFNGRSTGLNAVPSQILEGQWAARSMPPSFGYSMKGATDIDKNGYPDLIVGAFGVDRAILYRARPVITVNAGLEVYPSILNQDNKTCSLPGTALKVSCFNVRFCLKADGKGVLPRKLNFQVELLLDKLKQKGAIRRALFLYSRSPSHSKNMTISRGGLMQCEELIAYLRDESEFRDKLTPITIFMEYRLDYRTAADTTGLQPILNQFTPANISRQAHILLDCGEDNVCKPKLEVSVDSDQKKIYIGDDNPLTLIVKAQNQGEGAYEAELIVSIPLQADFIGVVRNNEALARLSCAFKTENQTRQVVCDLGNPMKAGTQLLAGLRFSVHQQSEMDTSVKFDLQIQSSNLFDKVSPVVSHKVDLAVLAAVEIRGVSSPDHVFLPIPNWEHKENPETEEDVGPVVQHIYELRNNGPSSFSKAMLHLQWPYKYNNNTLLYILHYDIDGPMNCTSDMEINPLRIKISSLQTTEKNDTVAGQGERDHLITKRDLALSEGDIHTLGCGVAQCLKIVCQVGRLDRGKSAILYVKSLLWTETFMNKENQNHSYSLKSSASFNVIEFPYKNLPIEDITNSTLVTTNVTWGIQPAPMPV
αvβ1, sequence (P05556 21-728 limits assumed): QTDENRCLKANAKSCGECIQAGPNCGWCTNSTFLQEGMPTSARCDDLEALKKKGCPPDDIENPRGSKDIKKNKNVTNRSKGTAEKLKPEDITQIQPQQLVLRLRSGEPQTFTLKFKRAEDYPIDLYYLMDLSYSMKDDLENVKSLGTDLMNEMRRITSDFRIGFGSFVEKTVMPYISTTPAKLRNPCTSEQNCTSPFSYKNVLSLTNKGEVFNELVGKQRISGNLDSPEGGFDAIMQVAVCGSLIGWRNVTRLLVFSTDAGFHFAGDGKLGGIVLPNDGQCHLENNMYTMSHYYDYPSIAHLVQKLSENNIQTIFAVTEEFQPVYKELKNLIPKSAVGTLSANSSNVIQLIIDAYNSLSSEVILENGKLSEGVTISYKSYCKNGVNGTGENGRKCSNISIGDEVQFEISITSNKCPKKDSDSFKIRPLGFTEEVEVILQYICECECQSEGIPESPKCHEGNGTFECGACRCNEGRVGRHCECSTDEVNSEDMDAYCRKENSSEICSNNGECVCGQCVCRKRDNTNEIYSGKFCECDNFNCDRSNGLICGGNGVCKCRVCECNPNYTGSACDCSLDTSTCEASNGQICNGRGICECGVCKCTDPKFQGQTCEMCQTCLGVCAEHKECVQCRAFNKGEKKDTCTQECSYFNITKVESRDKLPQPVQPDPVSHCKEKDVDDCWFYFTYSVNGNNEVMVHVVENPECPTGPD
αvβ6, sequence (P06756 31-992 limits assumed): as the sequence (P06756 31-992 limits assumed) above
αvβ6, sequence (P18564 22-707 limits assumed): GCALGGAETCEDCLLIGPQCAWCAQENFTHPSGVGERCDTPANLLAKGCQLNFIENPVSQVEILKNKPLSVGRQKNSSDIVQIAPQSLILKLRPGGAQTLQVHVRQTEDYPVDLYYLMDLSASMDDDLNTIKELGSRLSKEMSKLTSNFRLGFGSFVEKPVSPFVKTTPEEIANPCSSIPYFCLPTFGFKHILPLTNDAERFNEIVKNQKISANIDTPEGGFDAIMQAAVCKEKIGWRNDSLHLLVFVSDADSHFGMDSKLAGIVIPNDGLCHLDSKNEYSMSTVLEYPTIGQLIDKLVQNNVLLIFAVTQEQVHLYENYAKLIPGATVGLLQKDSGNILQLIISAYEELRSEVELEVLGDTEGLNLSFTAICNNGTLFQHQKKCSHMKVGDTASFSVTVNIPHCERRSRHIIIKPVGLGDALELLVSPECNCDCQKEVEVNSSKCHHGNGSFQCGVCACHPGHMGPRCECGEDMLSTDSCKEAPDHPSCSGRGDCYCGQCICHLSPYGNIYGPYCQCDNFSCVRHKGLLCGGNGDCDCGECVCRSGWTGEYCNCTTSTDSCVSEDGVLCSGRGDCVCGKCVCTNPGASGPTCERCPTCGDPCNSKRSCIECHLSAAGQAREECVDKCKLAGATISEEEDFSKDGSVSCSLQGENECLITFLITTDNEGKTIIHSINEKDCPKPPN

Row | Compound | IC50 (αvβ6) [µM] | IC50 (αvβ1) [µM]
1 | O=C(O)C[C@@H](O[C@@H]1CCCN(Cc2ccc3c(n2)NCCC3)C1)c1ccccc1 [Compound 390] | > 1 | > 1
2 | O=C(O)C[C@@H](O[C@@H]1CCCN(CCCCc2ccc3c(n2)NCCC3)C1)c1ccccc1 [Compound 391] | > 1 | > 1
3 | O=C(O)C[C@H](O[C@@H]1CCCN(Cc2ccc3c(n2)NCCC3)C1)c1ccccc1 [Compound 392] | > 1 | > 1
4 | O=C(O)C[C@H](O[C@@H]1CCCN(CCCCc2ccc3c(n2)NCCC3)C1)c1ccccc1 [Compound 393] | > 1 | > 1
5 | O=C(O)[C@@H](CO[C@@H]1CCCN(CCCCc2ccc3c(n2)NCCC3)C1)c1ccccc1 [Compound 394] | > 1 | > 1
6 | O=C(O)[C@H](CO[C@@H]1CCCN(CCCCc2ccc3c(n2)NCCC3)C1)c1ccccc1 [Compound 395] | > 1 | > 1
7 | O=C(O)[C@H](CO[C@@H]1CCCN(Cc2ccc3c(n2)NCCC3)C1)c1ccccc1 [Compound 396] | > 1 | > 1
8 | O=C(O)[C@H](CCO[C@@H]1CCCN(CCCCc2ccc3c(n2)NCCC3)C1)NC(=O)C12CCC(CC1)CC2 [Compound 399] | < 0.1 | < 0.1
9 | O=C(O)[C@@H](CCO[C@@H]1CCCN(CCCCc2ccc3c(n2)NCCC3)C1)Nc1ncnc2ccccc12 [Compound 405] | < 0.1 | 0.1 to 1
10 | O=C(O)[C@@H](CCO[C@@H]1CCCN(CCc2ccc3c(n2)NCCC3)C1)Nc1ncnc2ccccc12 [Compound 406] | 0.1 to 1 | 0.1 to 1
11 | O=C(O)[C@H](CO[C@@H]1CCCN(CCCCc2ccc3c(n2)NCCC3)C1)Nc1ncnc2ccccc12 [Compound 409] | < 0.1 | > 1
12 | O=C(O)[C@@H](CO[C@@H]1CCCN(CCCCc2ccc3c(n2)NCCC3)C1)Nc1ncnc2ccccc12 [Compound 410] | > 1 | > 1
13 | O=C(O)[C@@H](CO[C@@H]1CCCN(Cc2ccc3c(n2)NCCC3)C1)Nc1ncnc2ccccc12 [Compound 411] | > 1 | > 1
14 | O=C(O)C[C@@H](NC(=O)[C@@H]1CCCN(CCCc2ccc3c(n2)NCCC3)C1)c1cnc2ccccc2c1 [Compound 413] | < 0.1 | < 0.1
15 | O=C(O)C[C@H](CC(=O)N[C@@H]1CCN(CCCCc2ccc3c(n2)NCCC3)C1)c1ccccc1 [Compound 415] | 0.1 to 1 | 0.1 to 1
16 | O=C(O)C[C@H](CC(=O)N[C@@H]1CCN(C(=O)CCCc2ccc3c(n2)NCCC3)C1)c1ccccc1 [Compound 416] | > 1 | > 1
17 | O=C(CC[C@H](C(=O)O)c1ccccc1)N[C@@H]1CCN(C(=O)CCCc2ccc3c(n2)NCCC3)C1 [Compound 418] | > 1 | > 1

Row | Compound | IC50 (αvβ6) [µM] | IC50 (αvβ1) [µM]
18 | O=C(CC[C@@H](C(=O)O)c1ccccc1)N[C@@H]1CCN(C(=O)CCCc2ccc3c(n2)NCCC3)C1 [Compound 419] | > 1 | > 1
19 | O=C(CC[C@H](C(=O)O)c1ccccc1)N[C@@H]1CCN(CCCCc2ccc3c(n2)NCCC3)C1 [Compound 420] | > 1 | > 1
20 | O=C(CC[C@@H](C(=O)O)c1ccccc1)N[C@@H]1CCN(CCCCc2ccc3c(n2)NCCC3)C1 [Compound 421] | > 1 | > 1
21 | O=C(CC[C@@H](C(=O)O)c1ccccc1)N[C@H]1CCN(C(=O)CCCc2ccc3c(n2)NCCC3)C1 [Compound 423] | > 1 | > 1
22 | O=C(CC[C@H](C(=O)O)c1ccccc1)N[C@H]1CCN(CCCCc2ccc3c(n2)NCCC3)C1 [Compound 424] | > 1 | > 1
23 | O=C(CC[C@@H](C(=O)O)c1ccccc1)N[C@H]1CCN(CCCCc2ccc3c(n2)NCCC3)C1 [Compound 425] | > 1 | > 1
24 | O=C(CC[C@H](NC(=O)C12CCC(CC1)CC2)C(=O)O)N[C@@H]1CCN(CCCCc2ccc3c(n2)NCCC3)C1 [Compound 426] | < 0.1 | < 0.1
25 | O=C(CC[C@@H](NC(=O)C12CCC(CC1)CC2)C(=O)O)N[C@@H]1CCN(CCCCc2ccc3c(n2)NCCC3)C1 [Compound 427] | > 1 | > 1
26 | O=C(CC[C@H](NC(=O)C12CCC(CC1)CC2)C(=O)O)N[C@@H]1CCN(C(=O)CCCc2ccc3c(n2)NCCC3)C1 [Compound 428] | < 0.1 | < 0.1
27 | O=C(CC[C@@H](NC(=O)C12CCC(CC1)CC2)C(=O)O)N[C@H]1CCN(CCCCc2ccc3c(n2)NCCC3)C1 [Compound 431] | > 1 | > 1
28 | O=C(CC[C@H](NC(=O)[C@@H]1CCCN1S(=O)(=O)c1ccccc1)C(=O)O)N[C@H]1CCN(CCCCc2ccc3c(n2)NCCC3)C1 [Compound 435] | 0.1 to 1 | < 0.1
29 | O=C(CC[C@@H](NC(=O)[C@H]1CCCN1S(=O)(=O)c1ccccc1)C(=O)O)N[C@H]1CCN(CCCCc2ccc3c(n2)NCCC3)C1 [Compound 436] | > 1 | 0.1 to 1
30 | O=C(CC[C@@H](NC(=O)[C@@H]1CCCN1S(=O)(=O)c1ccccc1)C(=O)O)N[C@H]1CCN(CCCCc2ccc3c(n2)NCCC3)C1 [Compound 437] | > 1 | < 0.1
31 | O=C(CC[C@H](NC(=O)[C@H]1CCCN1S(=O)(=O)c1ccccc1)C(=O)O)N[C@H]1CCN(C(=O)CCCc2ccc3c(n2)NCCC3)C1 [Compound 438] | < 0.1 | < 0.1
32 | O=C(CC[C@H](NC(=O)[C@@H]1CCCN1S(=O)(=O)c1ccccc1)C(=O)O)N[C@H]1CCN(C(=O)CCCc2ccc3c(n2)NCCC3)C1 [Compound 439] | 0.1 to 1 | < 0.1
33 | O=C(CC[C@@H](NC(=O)[C@H]1CCCN1S(=O)(=O)c1ccccc1)C(=O)O)N[C@H]1CCN(C(=O)CCCc2ccc3c(n2)NCCC3)C1 [Compound 440] | > 1 | 0.1 to 1

Continued, values first:

Row | IC50 (αvβ6) [µM] | IC50 (αvβ1) [µM] | Compound
34 | < 0.1 | 0.1 to 1 | O=C(O)[C@H](CO[C@@H]1CCCN(CCCc2ccc3c(n2)NCCC3)C1)Nc1ncnc2ccccc12 [Compound 388]
35 | > 1 | > 1 | O=C(O)[C@@H](CO[C@@H]1CCCN(Cc2ccc3c(n2)NCCC3)C1)c1ccccc1 [Compound 389]
36 | > 1 | 0.1 to 1 | O=C(O)[C@H](CCO[C@@H]1CCCN(Cc2ccc3c(n2)NCCC3)C1)NC(=O)C12CCC(CC1)CC2 [Compound 397]
37 | < 0.1 | < 0.1 | O=C(O)[C@H](CCO[C@@H]1CCCN(CCc2ccc3c(n2)NCCC3)C1)NC(=O)C12CCC(CC1)CC2 [Compound 398]
38 | < 0.1 | < 0.1 | O=C(O)[C@H](CO[C@@H]1CCCN(CCCc2ccc3c(n2)NCCC3)C1)NC(=O)C12CCC(CC1)CC2 [Compound 400]
39 | > 1 | > 1 | O=C(O)[C@@H](CO[C@@H]1CCCN(CCCCc2ccc3c(n2)NCCC3)C1)NC(=O)C12CCC(CC1)CC2 [Compound 401]
40 | < 0.1 | 0.1 to 1 | O=C(O)[C@H](CO[C@@H]1CCCN(CCCCc2ccc3c(n2)NCCC3)C1)NC(=O)C12CCC(CC1)CC2 [Compound 402]
41 | > 1 | > 1 | O=C(O)[C@@H](CO[C@@H]1CCCN(Cc2ccc3c(n2)NCCC3)C1)NC(=O)C12CCC(CC1)CC2 [Compound 403]
42 | > 1 | > 1 | O=C(O)[C@H](CO[C@@H]1CCCN(Cc2ccc3c(n2)NCCC3)C1)NC(=O)C12CCC(CC1)CC2 [Compound 404]
43 | > 1 | > 1 | O=C(O)[C@@H](CCO[C@@H]1CCCN(Cc2ccc3c(n2)NCCC3)C1)Nc1ncnc2ccccc12 [Compound 407]
44 | > 1 | > 1 | O=C(O)[C@@H](CO[C@@H]1CCCN(CCCc2ccc3c(n2)NCCC3)C1)Nc1ncnc2ccccc12 [Compound 408]
45 | < 0.1 | < 0.1 | O=C(O)C[C@@H](NC(=O)[C@@H]1CCCN(CCCc2ccc3c(n2)NCCC3)C1)c1cccc(OC2COC2)c1 [Compound 412]
46 | > 1 | < 0.1 | O=C(O)C[C@@H](CC(=O)N[C@@H]1CCN(CCCCc2ccc3c(n2)NCCC3)C1)c1ccccc1 [Compound 414]
47 | 0.1 to 1 | < 0.1 | O=C(O)C[C@@H](CC(=O)N[C@@H]1CCN(C(=O)CCCc2ccc3c(n2)NCCC3)C1)c1ccccc1 [Compound 417]
48 | > 1 | > 1 | O=C(CC[C@H](C(=O)O)c1ccccc1)N[C@H]1CCN(CCCCc2ccc3c(n2)NCCC3)C1 [Compound 422]
49 | > 1 | > 1 | O=C(CC[C@@H](NC(=O)C12CCC(CC1)CC2)C(=O)O)N[C@@H]1CCN(C(=O)CCCc2ccc3c(n2)NCCC3)C1 [Compound 429]
50 | < 0.1 | < 0.1 | O=C(CC[C@H](NC(=O)C12CCC(CC1)CC2)C(=O)O)N[C@H]1CCN(CCCCc2ccc3c(n2)NCCC3)C1 [Compound 430]
51 | < 0.1 | < 0.1 | O=C(CC[C@H](NC(=O)C12CCC(CC1)CC2)C(=O)O)N[C@H]1CCN(C(=O)CCCc2ccc3c(n2)NCCC3)C1 [Compound 432]
52 | > 1 | > 1 | O=C(CC[C@@H](NC(=O)C12CCC(CC1)CC2)C(=O)O)N[C@H]1CCN(C(=O)CCCc2ccc3c(n2)NCCC3)C1 [Compound 433]
53 | < 0.1 | < 0.1 | O=C(CC[C@H](NC(=O)[C@H]1CCCN1S(=O)(=O)c1ccccc1)C(=O)O)N[C@H]1CCN(CCCCc2ccc3c(n2)NCCC3)C1 [Compound 434]
54 | > 1 | < 0.1 | O=C(CC[C@@H](NC(=O)[C@@H]1CCCN1S(=O)(=O)c1ccccc1)C(=O)O)N[C@H]1CCN(C(=O)CCCc2ccc3c(n2)NCCC3)C1 [Compound 441]
55 | 0.1 to 1 | 0.1 to 1 | O=C(O)C[C@H](CO[C@H]1CCCN(CCCc2ccc3c(n2)NCCC3)C1)c1ccccc1 [Compound 442]
